{"source": "patent US20140323416A1", "about": "“5-METHYLDIHYDROMORPHONE COMPOUNDS FOR TREATMENT OF PAIN” (priority 2013, published 2014)", "origin": "cited, not measured here"}
{"compound": "CN1CC[C@]23c4c5ccc(O)c4O[C@@]2(C)C(=O)CC[C@H]3[C@H]1C5", "note": "[Metopon, metopon]", "values": [{"measurement": "bioavailability", "setting": "in vivo", "result": "low bioavailability"}, {"measurement": "emetic action", "setting": "in vivo", "result": "nearly devoid of emetic action"}, {"measurement": "analgesic effectiveness", "setting": "relative to morphine", "result": "at least double to that of morphine"}, {"measurement": "duration of action", "setting": "relative to morphine", "result": "about equal to that of morphine"}, {"measurement": "physical dependence", "setting": "relative to morphine", "result": "built up more slowly than with morphine"}, {"measurement": "potency", "setting": "relative to morphine", "result": "reduced potency relative to morphine"}, {"measurement": "tolerance", "setting": "relative to morphine", "result": "develop more slowly and to disappear more quickly"}, {"measurement": "respiratory depression", "setting": "therapeutic analgesic doses", "result": "little or no respiratory depression"}, {"measurement": "mental dullness", "setting": "therapeutic analgesic doses, relative to morphine", "result": "much less mental dullness than morphine"}]}
